# Measured values from patent US20160375006A1, “USES OF PARALOG-SELECTIVE INHIBITORS OF GSK3 KINASES” (priority 2012, published 2016).
# Read-outs that look alike come from different tables or passages of the source.
# Assays:
# JNK1 = JNK1 (Homo sapiens, UniProt P45983)
# Experimental: (§1) This was completed utilizing one of two assays depending on the kinase being examined.
# (§2) A solution of IMAP binding reagent (IMAP Screening Express kit; Molecular Devices) (60 μL) was added to each well and incubated for 30 minutes.
# (§3) A solution of termination buffer (QuickScout Screening assist MSA; Carna Biosciences) (60 μL) was added to each well. The entire reaction mixture was then applied to a LabChip3000 system (Caliper Life Science) and the product and substrate peptide peaks were separated and quantified.
# (§4) The assay utilized was identical to that of the single point inhibitory activity determination (MSA) but run in dose response. […] A solution of termination buffer (QuickScout Screening assist MSA; Carna Biosciences) (60 μL) was added to each well. The entire reaction mixture was then applied to a LabChip3000 system (Caliper Life Science) and the product and substrate peptide peaks were separated and quantified.
# RET(Y791F) = RET(Y791F) (Homo sapiens, UniProt P07949, Y791F)
# Experimental: as §1, §2, §3, §4
# PKACγ = PKACγ (Homo sapiens, UniProt P22612)
# Experimental: as §1, §2, §3, §4
# DDR2 = DDR2 (Homo sapiens, UniProt Q16832)
# LATS2 = LATS2 (Homo sapiens, UniProt Q9NRM7)
# Experimental: as §1, §2, §3, §4
# BTK = BTK (Homo sapiens, UniProt Q06187)
# Experimental: as §1, §2, §3, §4
# HIPK2 = HIPK2 (Homo sapiens, UniProt Q9H2X6)
# Experimental: as §1, §2, §3, §4
# PAK5 = PAK5 (Homo sapiens, UniProt Q9P286)
# Experimental: as §1, §2, §3
# ACK = ACK (Homo sapiens, UniProt Q07912)
# Experimental: as §1, §2, §3, §4
# EPHA3 = EPHA3 (Homo sapiens, UniProt P29320)
# Experimental: as §1, §2, §3, §4
# ARG = ARG (Homo sapiens, UniProt P42684)
# Experimental: as §1, §2, §3
# EPHB1 = EPHB1 (Homo sapiens, UniProt P54762)
# Experimental: as §1, §2, §3, §4
# PKCγ = PKCγ (Homo sapiens, UniProt P05129)
# Experimental: as §1, §2, §3, §4
# SRC = SRC (Homo sapiens, UniProt P12931)
# Experimental: as §1, §2, §3, §4
# PKCβ1 = PKCβ1 (Homo sapiens, UniProt P05771)
# Experimental: as §1, §2, §3
# CDK2/CycE1 = CDK2/CycE1 (Homo sapiens, UniProt P24941)
# Experimental: as §1, §2, §3, §4
# MLK3_Cascade = MLK3_Cascade (Homo sapiens, UniProt Q16584)
# Experimental: as §1, §2, §3, §4
# PKCη = PKCη (Homo sapiens, UniProt P24723)
# Experimental: as §1, §2, §3, §4
# PKCε = PKCε (Homo sapiens, UniProt Q02156)
# Experimental: as §1, §2, §3, §4
# KDR = KDR (Homo sapiens, UniProt P35968)
# Experimental: as §1, §2, §3, §4
# TYRO3 = TYRO3 (Homo sapiens, UniProt Q06418)
# Experimental: as §1, §2, §3
# RET(M918T) = RET(M918T) (Homo sapiens, UniProt P07949, M918T)
# Experimental: as §1, §2, §3, §4
# MAPKAPK5 = MAPKAPK5 (Homo sapiens, UniProt Q8IW41)
# Experimental: as §1, §2, §3, §4
# NDR1 = NDR1 (Homo sapiens, UniProt Q15208)
# Experimental: as §1, §2, §3, §4
# TNIK = TNIK (Homo sapiens, UniProt Q9UKE5)
# Experimental: as §1, §2, §3, §4
# MELK = biological target: T1, MELK (Homo sapiens, UniProt Q14680); assay: Carna kinase panel; assay type: biochemical
# T1 construct: purchased Carna Biosciences
# Experimental: as §1, §2, §3
# PLK3 = PLK3 (Homo sapiens, UniProt Q9H4B4)
# Experimental: as §1, §2, §3
# TSSK1 = TSSK1 (Homo sapiens, UniProt Q9BXA7)
# Experimental: as §1, §2, §3, §4
# Erk5 = biological target: T2, Erk5 (Homo sapiens, UniProt Q13164); assay: Carna kinase panel; assay type: biochemical
# T2 construct: purchased Carna Biosciences
# Experimental: as §1, §2, §3
# PKCα = PKCα (Homo sapiens, UniProt P17252)
# Experimental: as §1, §2, §3, §4
# SGK = SGK (Homo sapiens, UniProt O00141)
# Experimental: as §1, §2, §3, §4
# skMLCK = skMLCK (Homo sapiens, UniProt Q9H1R3)
# Experimental: as §1, §2, §3, §4
# CDK6/CycD3 = CDK6/CycD3 (Homo sapiens, UniProt Q00534)
# Experimental: as §1, §2, §3, §4
# PHKG1 = PHKG1 (Homo sapiens, UniProt Q16816)
# Experimental: as §1, §2, §3, §4
# MAP2K2_Cascade = MAP2K2_Cascade (Homo sapiens, UniProt P36507)
# Experimental: as §1, §2, §3
# JNK2 = JNK2 (Homo sapiens, UniProt P45984)
# Experimental: as §1, §2, §3, §4
# CDC7/ASK = CDC7/ASK (Homo sapiens, UniProt O00311)
# Experimental: as §1, §2, §3, §4
# FLT4 = FLT4 (Homo sapiens, UniProt P35916)
# Experimental: as §1, §2, §3, §4
# CDK9/CycT1 = CDK9/CycT1 (Homo sapiens, UniProt P50750)
# Experimental: as §1, §2, §3, §4
# KIT = KIT (Homo sapiens, UniProt P10721)
# Experimental: as §1, §2, §3
# Chain of CDK6/CycD3 (Q00534 whole entry): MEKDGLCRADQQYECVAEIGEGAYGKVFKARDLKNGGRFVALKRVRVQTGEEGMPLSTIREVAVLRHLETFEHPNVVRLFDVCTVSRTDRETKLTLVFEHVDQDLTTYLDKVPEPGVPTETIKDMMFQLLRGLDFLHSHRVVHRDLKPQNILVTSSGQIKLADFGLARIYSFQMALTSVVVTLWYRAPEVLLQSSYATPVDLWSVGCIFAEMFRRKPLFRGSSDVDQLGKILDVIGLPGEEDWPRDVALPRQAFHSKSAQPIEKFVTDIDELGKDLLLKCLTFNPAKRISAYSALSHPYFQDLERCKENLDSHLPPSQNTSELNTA
# Chain of CDK6/CycD3 (P30281 whole entry partner): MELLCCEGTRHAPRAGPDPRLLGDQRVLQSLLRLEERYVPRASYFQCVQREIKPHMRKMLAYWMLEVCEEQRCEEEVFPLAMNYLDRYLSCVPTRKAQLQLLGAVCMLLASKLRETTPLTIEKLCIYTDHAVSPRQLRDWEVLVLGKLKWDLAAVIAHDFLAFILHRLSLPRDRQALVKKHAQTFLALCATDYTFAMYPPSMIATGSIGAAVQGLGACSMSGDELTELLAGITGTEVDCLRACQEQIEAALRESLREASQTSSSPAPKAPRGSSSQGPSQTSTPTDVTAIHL
# Chain of RET(Y791F) (P07949 29-1114 Y791F): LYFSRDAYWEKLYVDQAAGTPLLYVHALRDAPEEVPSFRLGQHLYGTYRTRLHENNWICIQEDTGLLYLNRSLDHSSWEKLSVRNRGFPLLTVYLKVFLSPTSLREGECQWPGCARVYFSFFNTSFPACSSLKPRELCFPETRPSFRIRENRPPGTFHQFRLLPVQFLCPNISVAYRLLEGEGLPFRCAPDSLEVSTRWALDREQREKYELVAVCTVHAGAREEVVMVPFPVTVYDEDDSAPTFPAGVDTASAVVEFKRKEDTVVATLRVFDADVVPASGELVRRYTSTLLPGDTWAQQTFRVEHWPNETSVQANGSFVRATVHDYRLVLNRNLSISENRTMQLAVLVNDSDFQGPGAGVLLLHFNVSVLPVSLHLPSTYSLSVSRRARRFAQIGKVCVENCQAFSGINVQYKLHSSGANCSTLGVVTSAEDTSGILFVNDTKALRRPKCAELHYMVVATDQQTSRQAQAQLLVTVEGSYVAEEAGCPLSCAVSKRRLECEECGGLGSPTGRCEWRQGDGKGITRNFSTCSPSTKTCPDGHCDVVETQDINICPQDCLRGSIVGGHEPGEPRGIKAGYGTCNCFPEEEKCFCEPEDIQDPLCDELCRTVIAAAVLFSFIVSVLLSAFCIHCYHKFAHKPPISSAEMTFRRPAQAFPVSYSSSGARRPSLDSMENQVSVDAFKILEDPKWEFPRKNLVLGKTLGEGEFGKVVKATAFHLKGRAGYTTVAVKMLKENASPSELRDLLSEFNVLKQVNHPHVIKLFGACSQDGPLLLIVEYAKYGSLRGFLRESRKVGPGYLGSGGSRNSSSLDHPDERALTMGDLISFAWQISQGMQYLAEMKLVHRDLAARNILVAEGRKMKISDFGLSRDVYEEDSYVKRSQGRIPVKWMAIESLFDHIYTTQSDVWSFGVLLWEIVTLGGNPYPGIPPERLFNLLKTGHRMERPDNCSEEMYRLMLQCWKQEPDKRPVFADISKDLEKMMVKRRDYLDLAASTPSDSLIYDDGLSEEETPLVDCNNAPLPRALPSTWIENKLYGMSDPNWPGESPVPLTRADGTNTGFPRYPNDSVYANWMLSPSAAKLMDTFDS
# Chain of DDR2 (Q16832 22-855): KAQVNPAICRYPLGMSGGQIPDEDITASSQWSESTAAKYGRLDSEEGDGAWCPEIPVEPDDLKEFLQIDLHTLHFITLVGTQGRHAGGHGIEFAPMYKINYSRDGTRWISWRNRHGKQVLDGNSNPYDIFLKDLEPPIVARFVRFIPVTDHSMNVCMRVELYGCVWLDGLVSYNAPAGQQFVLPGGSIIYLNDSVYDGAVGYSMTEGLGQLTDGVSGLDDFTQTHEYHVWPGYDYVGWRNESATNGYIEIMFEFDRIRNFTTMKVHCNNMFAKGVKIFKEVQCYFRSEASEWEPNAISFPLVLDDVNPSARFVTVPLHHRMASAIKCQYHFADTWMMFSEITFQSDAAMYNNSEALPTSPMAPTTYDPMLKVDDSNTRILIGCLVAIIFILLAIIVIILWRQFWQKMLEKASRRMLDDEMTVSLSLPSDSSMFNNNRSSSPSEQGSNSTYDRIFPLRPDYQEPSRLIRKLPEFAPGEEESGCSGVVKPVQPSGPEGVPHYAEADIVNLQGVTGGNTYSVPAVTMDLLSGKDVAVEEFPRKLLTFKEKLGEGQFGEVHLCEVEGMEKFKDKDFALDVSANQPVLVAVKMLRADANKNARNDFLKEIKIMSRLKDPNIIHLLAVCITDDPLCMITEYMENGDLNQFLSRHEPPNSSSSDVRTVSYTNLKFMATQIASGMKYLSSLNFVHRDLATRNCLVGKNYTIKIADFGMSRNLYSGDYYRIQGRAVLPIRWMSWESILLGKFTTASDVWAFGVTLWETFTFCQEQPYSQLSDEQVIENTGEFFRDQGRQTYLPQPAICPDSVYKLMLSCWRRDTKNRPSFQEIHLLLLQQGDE
# Chain of MAP2K2_Cascade (P36507 whole entry): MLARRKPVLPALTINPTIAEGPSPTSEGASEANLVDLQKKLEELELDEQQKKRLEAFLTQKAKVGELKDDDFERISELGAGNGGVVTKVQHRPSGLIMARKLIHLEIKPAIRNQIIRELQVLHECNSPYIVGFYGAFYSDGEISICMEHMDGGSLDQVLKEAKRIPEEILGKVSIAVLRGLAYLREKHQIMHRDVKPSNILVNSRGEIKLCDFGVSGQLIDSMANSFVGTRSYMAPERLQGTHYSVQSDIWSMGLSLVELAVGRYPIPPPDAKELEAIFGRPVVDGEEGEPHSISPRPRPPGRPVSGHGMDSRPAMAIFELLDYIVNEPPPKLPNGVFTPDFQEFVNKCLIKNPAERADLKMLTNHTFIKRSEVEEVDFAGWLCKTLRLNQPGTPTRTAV
# Chain of PKACγ (P22612 whole entry): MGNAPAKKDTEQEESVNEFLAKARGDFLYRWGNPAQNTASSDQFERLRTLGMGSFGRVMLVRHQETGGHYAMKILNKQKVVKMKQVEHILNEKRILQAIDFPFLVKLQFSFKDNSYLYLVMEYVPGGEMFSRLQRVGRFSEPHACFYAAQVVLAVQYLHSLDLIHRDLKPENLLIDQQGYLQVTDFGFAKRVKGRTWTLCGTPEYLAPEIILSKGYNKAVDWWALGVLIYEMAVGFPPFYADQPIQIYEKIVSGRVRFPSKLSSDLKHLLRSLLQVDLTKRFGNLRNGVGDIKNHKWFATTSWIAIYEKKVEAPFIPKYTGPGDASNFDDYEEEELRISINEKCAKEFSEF
# Chain of KDR (P35968 20-1356): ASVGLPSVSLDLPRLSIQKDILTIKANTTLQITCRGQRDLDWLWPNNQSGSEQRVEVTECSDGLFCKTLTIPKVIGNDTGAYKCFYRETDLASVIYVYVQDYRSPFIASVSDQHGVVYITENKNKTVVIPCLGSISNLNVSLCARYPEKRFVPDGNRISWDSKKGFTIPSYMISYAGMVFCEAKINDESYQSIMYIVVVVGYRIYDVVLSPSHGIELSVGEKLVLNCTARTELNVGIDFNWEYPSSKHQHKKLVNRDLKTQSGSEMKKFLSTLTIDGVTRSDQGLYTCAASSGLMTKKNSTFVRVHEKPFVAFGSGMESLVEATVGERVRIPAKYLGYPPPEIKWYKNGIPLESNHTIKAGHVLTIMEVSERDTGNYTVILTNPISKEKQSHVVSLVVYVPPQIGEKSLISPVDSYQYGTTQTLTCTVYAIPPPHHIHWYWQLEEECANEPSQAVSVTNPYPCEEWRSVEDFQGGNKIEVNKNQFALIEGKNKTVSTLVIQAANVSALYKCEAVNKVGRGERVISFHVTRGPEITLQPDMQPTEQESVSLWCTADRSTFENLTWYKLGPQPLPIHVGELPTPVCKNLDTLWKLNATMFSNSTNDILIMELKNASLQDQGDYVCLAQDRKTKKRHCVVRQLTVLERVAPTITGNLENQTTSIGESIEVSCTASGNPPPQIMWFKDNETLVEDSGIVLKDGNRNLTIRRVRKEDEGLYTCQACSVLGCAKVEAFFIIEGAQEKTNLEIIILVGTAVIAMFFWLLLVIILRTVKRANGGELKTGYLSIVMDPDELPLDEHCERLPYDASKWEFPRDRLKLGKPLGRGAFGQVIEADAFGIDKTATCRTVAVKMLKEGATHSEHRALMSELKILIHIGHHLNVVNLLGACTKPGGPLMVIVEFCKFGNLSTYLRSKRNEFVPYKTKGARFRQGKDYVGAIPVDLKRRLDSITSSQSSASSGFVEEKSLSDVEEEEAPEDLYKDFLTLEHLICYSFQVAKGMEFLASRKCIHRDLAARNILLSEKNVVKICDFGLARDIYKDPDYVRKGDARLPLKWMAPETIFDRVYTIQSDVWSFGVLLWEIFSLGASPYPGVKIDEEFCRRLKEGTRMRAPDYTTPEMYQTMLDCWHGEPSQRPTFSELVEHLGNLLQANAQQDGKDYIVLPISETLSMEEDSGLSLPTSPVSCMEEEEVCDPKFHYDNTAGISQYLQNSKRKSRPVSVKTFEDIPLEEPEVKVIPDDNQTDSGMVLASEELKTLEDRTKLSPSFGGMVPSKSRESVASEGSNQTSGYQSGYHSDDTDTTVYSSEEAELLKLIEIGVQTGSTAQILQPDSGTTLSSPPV
# Chain of PHKG1 (Q16816 whole entry): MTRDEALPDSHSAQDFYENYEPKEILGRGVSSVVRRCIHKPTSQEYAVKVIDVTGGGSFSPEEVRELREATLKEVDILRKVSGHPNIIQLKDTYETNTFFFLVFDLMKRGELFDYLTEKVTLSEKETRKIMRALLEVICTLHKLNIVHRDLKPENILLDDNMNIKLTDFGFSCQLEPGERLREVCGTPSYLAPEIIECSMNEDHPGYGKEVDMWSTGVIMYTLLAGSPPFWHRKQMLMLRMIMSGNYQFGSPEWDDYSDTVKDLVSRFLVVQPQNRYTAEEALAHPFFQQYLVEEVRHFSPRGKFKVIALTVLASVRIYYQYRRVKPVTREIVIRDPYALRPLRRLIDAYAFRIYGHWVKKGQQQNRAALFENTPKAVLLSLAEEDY
smiles,measurement,setting,value
CC(C)(C)Cc1[nH]nc2c1[C@](C)(c1ccccc1)C1=C(CC(C)(C)CC1=O)N2 [BRD3731],% Inhibition 10 μM,JNK1; 10 μM,−6.0%
same,% Inhibition 10 μM,RET(Y791F); 10 μM,9.5%
same,% Inhibition 10 μM,PKACγ; 10 μM,6.5%
same,% Inhibition 10 μM,DDR2; 10 μM,7.9%
same,% Inhibition 10 μM,LATS2; 10 μM,−3.0%
same,% Inhibition 10 μM,BTK; 10 μM,0.3%
same,% Inhibition 10 μM,HIPK2; 10 μM,3.2%
same,% Inhibition 10 μM,PAK5; 10 μM,6.5%
same,% Inhibition 10 μM,ACK; 10 μM,−1.3%
same,% Inhibition 10 μM,EPHA3; 10 μM,3.0%
same,% Inhibition 10 μM,ARG; 10 μM,6.4%
same,% Inhibition 10 μM,EPHB1; 10 μM,2.7%
same,% Inhibition 10 μM,PKCγ; 10 μM,5.0%
same,% Inhibition 10 μM,SRC; 10 μM,1.0%
same,% Inhibition 10 μM,PKCβ1; 10 μM,4.1%
same,IC50,CDK2/CycE1; CDK2/CycE1,8.8 µM
same,% Inhibition 10 μM,"CDK2/CycE1; CDK2/CycE1, 10 μM",42.6%
same,Fold Selectivity,CDK2/CycE1; IC50 CDK2/CycE1 / IC50 GSK3β,326.9 fold
same,% Inhibition 10 μM,MLK3_Cascade; 10 μM,−0.8%
same,% Inhibition 10 μM,PKCη; 10 μM,−5.8%
same,% Inhibition 10 μM,PKCε; 10 μM,1.8%
same,% Inhibition 10 μM,KDR; 10 μM,7.1%
same,% Inhibition 10 μM,TYRO3; 10 μM,−3.5%
same,% Inhibition 10 μM,RET(M918T); 10 μM,−2.2%
same,% Inhibition 10 μM,MAPKAPK5; 10 μM,6.1%
same,% Inhibition 10 μM,NDR1; 10 μM,−3.7%
same,% Inhibition 10 μM,TNIK; 10 μM,−1.2%
same,% Inhibition 10 μM,MELK; 10 μM,39.2%
same,% Inhibition 10 μM,PLK3; 10 μM,4.0%
same,% Inhibition 10 μM,TSSK1; 10 μM,−0.8%
same,% Inhibition 10 μM,Erk5; 10 μM,4.5%
same,% Inhibition 10 μM,PKCα; 10 μM,8.1%
same,% Inhibition 10 μM,SGK; 10 μM,−0.4%
same,% Inhibition 10 μM,skMLCK; 10 μM,9.4%
same,IC50,CDK6/CycD3; CDK6/CycD3,> 10 µM
same,% Inhibition 10 μM,"CDK6/CycD3; CDK6/CycD3, 10 μM",28.3%
same,Fold Selectivity,CDK6/CycD3; IC50 CDK6/CycD3 / IC50 GSK3β,>370 fold
same,% Inhibition 10 μM,PHKG1; 10 μM,13.9%
same,% Inhibition 10 μM,MAP2K2_Cascade; 10 μM,−0.4%
same,% Inhibition 10 μM,JNK2; 10 μM,−3.9%
same,% Inhibition 10 μM,CDC7/ASK; 10 μM,−3.1%
same,% Inhibition 10 μM,FLT4; 10 μM,16.8%
same,% Inhibition 10 μM,CDK9/CycT1; 10 μM,11.3%
same,% Inhibition 10 μM,KIT; 10 μM,−1.7%
CC[C@@]1(c2ccccc2)C2=C(CC(C)(C)CC2=O)Nc2n[nH]cc21 [BRD0705],% Inhibition at 10 μM,JNK1,−3.9%
same,% Inhibition at 10 μM,RET(Y791F),−2.2%
same,% Inhibition at 10 μM,PKACγ,−3.6%
same,% Inhibition at 10 μM,DDR2,−1.4%
same,% Inhibition at 10 μM,LATS2,−11.9%
same,% Inhibition at 10 μM,BTK,2.1%
same,% Inhibition at 10 μM,HIPK2,−0.5%
same,% Inhibition at 10 μM,PAK5,9.3%
same,% Inhibition at 10 μM,ACK,−4.5%
same,% Inhibition at 10 μM,EPHA3,25.2%
same,% Inhibition at 10 μM,ARG,1.1%
same,% Inhibition at 10 μM,EPHB1,−9.9%
same,% Inhibition at 10 μM,PKCγ,−8.0%
same,% Inhibition at 10 μM,SRC,3.2%
same,% Inhibition at 10 μM,PKCβ1,−6.5%
same,% Inhibition at 10 μM,CDK2/CycE1; CDK2/CycE1,53.4%
same,IC50,CDK2/CycE1; read-out: IC50 CDK2/CycE1,9.43 µM
same,% Inhibition at 10 μM,MLK3_Cascade,4.6%
same,% Inhibition at 10 μM,PKCη,−4.0%
same,% Inhibition at 10 μM,PKCε,−4.5%
same,% Inhibition at 10 μM,KDR,−4.8%
same,% Inhibition at 10 μM,TYRO3,3.8%
same,% Inhibition at 10 μM,RET(M918T),−2.9%
same,% Inhibition at 10 μM,MAPKAPK5,−1.0%
same,% Inhibition at 10 μM,NDR1,−4.8%
same,% Inhibition at 10 μM,TNIK,6.8%
same,% Inhibition at 10 μM,MELK,−5.6%
same,% Inhibition at 10 μM,PLK3,−12.5%
same,% Inhibition at 10 μM,TSSK1,−8.5%
same,% Inhibition at 10 μM,Erk5,−7.9%
same,% Inhibition at 10 μM,PKCα,−0.5%
same,% Inhibition at 10 μM,SGK,−4.4%
same,% Inhibition at 10 μM,skMLCK,−2.5%
same,% Inhibition at 10 μM,CDK6/CycD3; CDK6/CycD3,−0.5%
same,% Inhibition at 10 μM,PHKG1,−2.5%
same,% Inhibition at 10 μM,MAP2K2_Cascade,1.3%
same,% Inhibition at 10 μM,JNK2,−2.5%
same,% Inhibition at 10 μM,CDC7/ASK,−7.2%
same,% Inhibition at 10 μM,FLT4,−7.9%
same,% Inhibition at 10 μM,CDK9/CycT1,8.4%
same,% Inhibition at 10 μM,KIT,−0.3%
